Experiment in all cases: NCI tumour cell line growth inhibition, 48 h
In assay [1] the test system is BT-549.
The subject of assay [2] is EKVX.
In assay [3] the test system is HCC 2998.
Assay [4] concerns HCT-116.
Assay [5] has as its system Hs-578T.
In assay [6] the test system is IGROV-1.
The test system of assay [7] is KM12.
The subject of assay [8] is MDA-MB-435.
Assay [9] has as its system NCI-H460.
In assay [10] the test system is OVCAR-3.
Assay [11] concerns OVCAR-4.
Assay [12] concerns OVCAR-5.
Assay [13] deals with PC-3.
Assay [14] has as its system SK-MEL-5.
The test system of assay [15] is SK-OV-3.
Assay [16] deals with SN12C.
Assay [17] has as its system SNB-19.
Assay [18] deals with SR.
Assay [19] has as its system UACC-62.
For assay [20], the system named is RXF 393.

SMILES strings stand for the structures.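 Five concentrations, 48 hours, 96-well plates. GI50 is the concentration that inhibits growth by half.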 Calls of active or inactive are those of the source. Rule as the data show it: active = GI50 up to about 1.1 µM and inactive = higher.

Regarding `CCOC(=O)/C=C(\C(=O)OCC)n1ccc(N)nc1=O`, the GI50 is 38.6 µM (inactive) in assay [1]; 62.8 µM (inactive) in assay [2]; > 100 µM (inactive) in assay [3]; > 100 µM (inactive) in [4]; > 100 µM (inactive) in assay [5]; > 100 µM (inactive) in assay [6]. For the same compound, the GI50 is > 100 µM (inactive) in [7]; 94.6 µM (inactive) in assay [8]; > 100 µM (inactive) in assay [9]; > 100 µM (inactive) in assay [10]; 72.9 µM (inactive) in [11]; 33 µM (inactive) in assay [12]. For the same compound, the GI50 in [13] was > 100 µM (inactive); in [14], > 100 µM (inactive); in assay [15] it was > 100 µM (inactive); in assay [16], > 100 µM (inactive); in [17] it was > 100 µM (inactive); in [18], 87.7 µM (inactive). Also, the GI50 in [19] is > 100 µM (inactive).

Take `C#C[C@]1(O)CC[C@H]2[C@@H]3CCC4=C/C(=N/NC(=O)c5cccc6c(=O)c7ccccc7[nH]c56)CCC4[C@H]3CC[C@@]21C` (stereo not given in full): the GI50 in assay [1] is 19.2 µM (inactive); in assay [2] it was 77.8 µM (inactive); in assay [3] it was 47.9 µM (inactive); in assay [4], 53 µM (inactive); in [5], 32.1 µM (inactive); in assay [6] it was 82.2 µM (inactive). Besides, the GI50 in [7] is 25.5 µM (inactive); in assay [8], 38.7 µM (inactive); in assay [10], 32.3 µM (inactive); in assay [11], 45.8 µM (inactive); in assay [12] it was > 100 µM (inactive); in assay [13], 34.7 µM (inactive). Also, the GI50 in assay [14] was 24.4 µM (inactive); in assay [15], > 100 µM (inactive); in assay [16], > 100 µM (inactive); in assay [17] it was 86.3 µM (inactive); in assay [18], 28.4 µM (inactive); in assay [19], 30.8 µM (inactive).

For `CC1(C)[C@@H]2CC[C@]1(C)[C@H](OC(=O)/C=C/c1ccccc1)C2`, the GI50 is 21.9 µM (inactive) in [1]; 19.9 µM (inactive) in [2]; 17 µM (inactive) in assay [3]; 18.4 µM (inactive) in [4]; 19.5 µM (inactive) in assay [5]; 27.7 µM (inactive) in [6]. Besides, the GI50 was 20.8 µM (inactive) in assay [7]; 26 µM (inactive) in assay [8]; 29 µM (inactive) in assay [9]; < 0.01 µM (active) in assay [10]; 22 µM (inactive) in [11]; 19.6 µM (inactive) in assay [12]. For the same compound, the GI50 in [13] was 23.4 µM (inactive); in assay [20] it was 16.9 µM (inactive); in [14] it was 16.7 µM (inactive); in [15] it was 34.9 µM (inactive); in [16], 18.8 µM (inactive); in assay [17] it was 19.8 µM (inactive). The GI50 in assay [19] is 21.2 µM (inactive).

Consider `CC(=O)c1cc(CC2Cc3cc4c(cc3C2=O)CCC4)cc2c1CCC2` (stereo not given), for which the GI50 in assay [1] was 15.4 µM (inactive); in assay [2], 37.8 µM (inactive); in [3], 46 µM (inactive); in [4], 26.1 µM (inactive); in [5], 35.5 µM (inactive); in assay [6], > 100 µM (inactive). Also, the GI50 was 37.2 µM (inactive) in assay [7]; 32.2 µM (inactive) in assay [8]; 36 µM (inactive) in assay [9]; 90.2 µM (inactive) in [10]; 54.8 µM (inactive) in [11]; > 100 µM (inactive) in assay [12]. In addition, the GI50 in assay [13] was 10.1 µM (inactive); in [14], 14 µM (inactive); in [15], 62.2 µM (inactive); in assay [16], 47.4 µM (inactive); in assay [17], 78 µM (inactive); in assay [18] it was 29.9 µM (inactive). The GI50 in assay [19] is > 100 µM (inactive).

Values taken from ChEMBL document CHEMBL1201862, “PubChem BioAssay data set” (2004).
